# Data from US20190046490A1, “METHODS OF TREATING LACTOSE INTOLERANCE” (Nogra Pharma Limited, priority 2016, published 2019).
# Assays:
# Caco-2 cells = experiment: Glucose uptake assay (2-DG6P) in Caco-2 cells; type: cell-based, human; conditions: 1 mM, 24 h
# Description: Glucose uptake was evaluated by using the glucose uptake colorimetric assay kit (Sigma-Aldrich) according to the manufacturer's instructions. Briefly, Caco-2 cells were seeded into a 96-well plate at a density of 30,000 cells per well. Cells were serum deprived for 16 hours prior to stimulation in order to synchronize the cells. Cells were treated with GED (1 mM) or pioglitazone (1 μM) for 24 h. Cells were then washed 3 times with PBS and were glucose-starved by incubating with 100 μl of KRPH buffer (Krebs-Ringer-Phosphate-HEPES (KRPH) Buffer—20 mM HEPES, 5 mM KH2PO4, 1 mM MgSO4, 1 mM CaCl2, 136 mM NaCl, and 4.7 mM KCl, pH 7.4) containing 2% BSA for 40 minutes. 10 μl of 2-deoxyglucose (2-DG; 10 mM) was then added and incubation was continued for 20 minutes. 2-DG is taken up by the cells and phosphorylated by hexokinase to 2-DG6P, which cannot be further metabolized and accumulates in cells. Following incubation, cells were washed 3 times with PBS and lysed with 80 μl of the extraction buffer provided. The amount of 2-DG6P (which is directly proportional to glucose uptake by the cells) was determined by a colorimetric detection assay according to the manufacturer's protocol.
# lactase = experiment: Lactase expression and activity in short term cultures of human duodenal biopsies; type: cell-based; conditions: exposure for 6 hours
# LCT = LCT mRNA and LCT activity in duodenum and jejunum of rats after 5 days oral gavage; type: in vivo, Sprague Dawley rats
# Description: Expression of genes of interest was quantified by quantitative PCR (qPCR) of corresponding reverse transcribed mRNA. One μg of total RNA was reverse-transcribed into cDNA using the High Capacity cDNA Archive kit (Applied Biosystems). Amplification was performed using an ABI PRISM 7000 sequence detection system (Applied Biosystem) using Power SYBR® Green PCR master Mix (Applied Biosystem). Primer pairs for each human transcript were chosen with qPrimer depot software (at primerdepot.nci.nih.gov.). Quantification of qPCR signals was performed using ΔCt relative quantification method using GAPDH as a reference gene for human and rat samples and β-Actin for mouse samples. Values were represented in terms of relative quantity of mRNA level variation or fold increase compared to control conditions.
# Lactase activity was evaluated by using a glucose oxidase method (Glucose Assay Kit, Sigma). This lactase assay is based on the measurement of the amount of glucose produced following the action of lactase by incubating samples with a lactose buffer solution (0.056 mol/l lactose in a 0.1 mol/l Na-maleate buffer). For Caco-2 cells, lactase activity was determined directly from the cell monolayer. After extensive washing, the cell monolayer was incubated with lactose buffer for one hour at 37° C. The supernatant was recovered, 50 μl were diluted with 100 μl of glucose oxidase reagent and incubated at 37° C. for 1 hour. The reaction was stopped with 100 μl of H2SO4 and read by spectrophotometry at 450 nm. When lactase activity was determined from intestinal sample, tissue samples were first dounce-homogenized in 0.9% NaCl on crushed ice. These homogenates were then diluted in 0.9% NaCl ( 1/500) and 50 μl of dilution were incubated with lactose buffer and used to determine lactase activity. For each experiment, the background attributed to the remaining glucose in the samples was measured by incubating cells or cell extracts in lactose-free buffer.
# To determine whether CLA induces LCT expression and activity in vivo, Sprague Dawley rats were fed a control diet and administered either carboxymethyl cellulose (CMC; 0.5%), CLA, or GED for 5 days, after which levels of PPARγ mRNA, LCT mRNA, and LCT activity were measured. CLA was administered at 200 mg/kg/day by oral gavage, and GED was administered at 30 mg/kg/day by oral gavage (FIG. 21A).
# [1] = oral gavage 5 days, GED 30 mg/kg/day, CLA 200 mg/kg/day
smiles,measurement,setting,value
"COC(Cc1ccc(N)cc1)C(=O)O (stereo not shown) [GED, 3-(4′-aminophenyl)2-methoxypropionic acid]",glucose uptake of Caco-2 cells,Caco-2 cells,did not significantly alter
same,lactase expression,lactase,significant increase
same,lactase activity,lactase; data not shown,significant increase
same,LCT activity in jejunal tissue compared to CMC control,LCT; 30 mg/kg/day oral gavage 5 days,significant increase
same,LCT activity in duodenal tissue compared to CMC control,LCT; [1],significant increase
same,LCT mRNA expression in duodenal tissue relative to CMC control,LCT; [1],significant increase
same,LCT mRNA expression in jejunal tissue relative to CMC control,LCT; [1],significant increase
